The test system of the experiment is B6C3F1 mice, B16 melanoma ip, median survival T/C. The experiment in a line: NCI In Vivo Anticancer Drug Screen. Data for tumor model B16 Melanoma (intraperitoneal) in B6C3F1 mice. As to conditions: endpoint: median survival time, higher = longer survival. The method in brief: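 Transplantable tumor in mice; treated vs vehicle control groups; survival or tumor size measured; value = T/C ratio.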

[1] abbreviates: dose: 12.5 mg/kg/injection, schedule: Q01DX009 (ip), vehicle: saline.
Setting [2] is: dose: 25.0 mg/kg/injection, schedule: Q01DX009 (ip), vehicle: saline.
Setting [3] is: dose: 25.0 mg/kg/injection, schedule: Q01DX009 (ip), vehicle: Klucel (hydroxypropylcellulose) (HPC).
The mark [4] stands for this setting: dose: 50.0 mg/kg/injection, schedule: Q01DX009 (ip), vehicle: Klucel (hydroxypropylcellulose) (HPC).

The values below come from PubChem BioAssay AID200 (DTP/NCI, 2004).

The structures appear in SMILES notation. Several values for one entry are separate records, joined by “and”; a condition that tells them apart may be missing. Equal values may be shown once. Inconclusive results and toxic doses are left out.

With `OCCN1CCN(CC/C=C2/c3ccccc3Sc3ccc(Cl)cc32)CC1`, the T/C was 101 % of control (dose: 1.56 mg/kg/injection, schedule: Q01DX009 (ip), vehicle: saline); 102 % of control (dose: 3.12 mg/kg/injection, schedule: Q01DX009 (ip), vehicle: saline); 103 % of control and 105 % of control (dose: 6.25 mg/kg/injection, schedule: Q01DX009 (ip), vehicle: saline); 93 % of control and 106 % of control under setting [1]; 100 % of control under setting [2].

`C=C(C)CNC1=C(C)C(=O)C2=C(C1=O)[C@H](COC(N)=O)[C@]1(OC)[C@@H]3N[C@@H]3CN21`: the T/C runs as follows: (dose: 0.5 mg/kg/injection, schedule: Q01DX001 (ip), vehicle: distilled water + Tween-80) 122 % of control; (dose: 4.0 mg/kg/injection, schedule: Q01DX001 (ip), vehicle: distilled water + Tween-80) 160 % of control; (dose: 8.0 mg/kg/injection, schedule: Q01DX001 (ip), vehicle: distilled water + Tween-80) 186 % of control; (dose: 16.0 mg/kg/injection, schedule: Q01DX001 (ip), vehicle: distilled water + Tween-80) 226 % of control.

Consider `CC(C)CC(NC=O)C(=O)O` (stereo not given), for which the T/C is 103 % of control under setting [3]; 103 % of control under setting [4]; 92 % of control and 100 % of control (dose: 100.0 mg/kg/injection, schedule: Q01DX009 (ip), vehicle: Klucel (hydroxypropylcellulose) (HPC)).

With `CC(=O)NCCSSCCCCS(=O)O`, the T/C under setting [2] was 96 % of control; the T/C (dose: 50.0 mg/kg/injection, schedule: Q01DX009 (ip), vehicle: saline) was 103 % of control; the T/C (dose: 100.0 mg/kg/injection, schedule: Q01DX009 (ip), vehicle: saline) is 98 % of control; the T/C (dose: 200.0 mg/kg/injection, schedule: Q01DX009 (ip), vehicle: saline) is 111 % of control; the T/C (dose: 400.0 mg/kg/injection, schedule: Q01DX009 (ip), vehicle: saline) was 96 % of control.

Turning to `CN(Cc1cnc2nc(N)nc(N)c2n1)c1c(Cl)cc(C(=O)NC(CCC(=O)O)C(=O)O)cc1Cl` (stereo not given), the T/C by setting is: under setting [1], 96 % of control; under setting [2], 91 % of control.

On to `COc1cc(NCc2ccc3nc(N)nc(N)c3c2C)cc(OC)c1OC`, for which the T/C was 110 % of control (dose: 2.5 mg/kg/injection, schedule: Q01DX009 (ip), vehicle: sodium bicarbonate); 118 % of control (dose: 5.0 mg/kg/injection, schedule: Q01DX009 (ip), vehicle: sodium bicarbonate); 108 % of control (dose: 6.25 mg/kg/injection, schedule: Q01DX009 (ip), vehicle: water); 123 % of control (dose: 10.0 mg/kg/injection, schedule: Q01DX009 (ip), vehicle: sodium bicarbonate); 114 % of control (dose: 12.5 mg/kg/injection, schedule: Q01DX009 (ip), vehicle: water); 121 % of control (dose: 25.0 mg/kg/injection, schedule: Q01DX009 (ip), vehicle: water).

Consider `N=C(N)c1ccc(N=Nc2c(O)ccc3cc(O)ccc23)cc1`, for which the T/C by setting is: (dose: 0.19 mg/kg/injection, schedule: Q01DX009 (ip), vehicle: Klucel (hydroxypropylcellulose) (HPC)) 114 % of control; (dose: 0.39 mg/kg/injection, schedule: Q01DX009 (ip), vehicle: Klucel (hydroxypropylcellulose) (HPC)) 99 % of control; (dose: 0.78 mg/kg/injection, schedule: Q01DX009 (ip), vehicle: Klucel (hydroxypropylcellulose) (HPC)) 92 % of control; (dose: 1.56 mg/kg/injection, schedule: Q01DX009 (ip), vehicle: Klucel (hydroxypropylcellulose) (HPC)) 92 % of control; (dose: 6.25 mg/kg/injection, schedule: Q01DX009 (ip), vehicle: Klucel (hydroxypropylcellulose) (HPC)) 97 % of control; (dose: 12.5 mg/kg/injection, schedule: Q01DX009 (ip), vehicle: Klucel (hydroxypropylcellulose) (HPC)) 97 % of control. The T/C reads like this: under setting [3], 87 % of control; under setting [4], 89 % of control.

Turning to `[Cl][Hg][CH]1CCC2OC1CC[CH]2[Hg][Cl]` (stereo not given), the T/C (dose: 1.56 mg/kg/injection, schedule: Q01DX009 (ip), vehicle: saline with Tween-80) was 97 % of control; the T/C (dose: 3.12 mg/kg/injection, schedule: Q01DX009 (ip), vehicle: saline with Tween-80) is 97 % of control; the T/C (dose: 6.25 mg/kg/injection, schedule: Q01DX009 (ip), vehicle: saline with Tween-80) was 101 % of control.

With `COC1C(N)C(OC2C(Oc3cccc4c(O)c5c(=O)oc6ccc(C)c7c(=O)oc(c34)c5c67)OC(C)C(O)C2(C)O)OC(C)C1O` (stereo not given), the T/C (dose: 1.09 mg/kg/injection, schedule: Q01DX009 (ip), vehicle: DMSO) is 226 % of control; the T/C (dose: 1.25 mg/kg/injection, schedule: Q01DX009 (ip), vehicle: other) was 179 % of control; the T/C (dose: 1.81 mg/kg/injection, schedule: Q01DX009 (ip), vehicle: DMSO) is 255 % of control; the T/C (dose: 2.5 mg/kg/injection, schedule: Q01DX009 (ip), vehicle: other) is 227 % of control; the T/C (dose: 3.0 mg/kg/injection, schedule: Q01DX009 (ip), vehicle: DMSO) is 244 % of control; the T/C (dose: 5.0 mg/kg/injection, schedule: Q01DX009 (ip), vehicle: DMSO) is 326 % of control. Further, the T/C runs as follows: (dose: 5.0 mg/kg/injection, schedule: Q01DX009 (ip), vehicle: other) 227 % of control; (dose: 8.4 mg/kg/injection, schedule: Q01DX009 (ip), vehicle: DMSO) 190 % of control; (dose: 10.0 mg/kg/injection, schedule: Q01DX009 (ip), vehicle: other) 179 % of control.
